Non-standard residues stand in square brackets, D forms with d. Residues, ends and D or L forms follow the SMILES beside them. *: point of attachment. Hexanoyl = CCCCCC(=O)*; Pentanoyl = CCCCC(=O)*
How the values were obtained:
[1] = tested on: E. coli (K-12 MG1655); format: cell-based; conditions: for E. coli MBC, antibiotic alone / E. coli MIC, antibiotic alone: Table 6, K-12 MG1655, checkerboard assay, 50:50 PBS/LB-broth, 200 µL
[2] = tested on: E. cloacae; conditions: 20 h
Experimental: (§1) S. aureus (ATCC 29213, MSSA, ATCC, Manassas, VA), E. coli (K-12 MG1655) and clinical isolates of S. aureus, E. coli, E. faecium, K. pneumoniae, A. baumannii, P. aeruginosa and E. cloacae obtained from the Department of Laboratory Medicine at Örebro University Hospital were streaked on Luria–Bertani (LB) agar plates and incubated at 37 °C overnight. Single colonies were inoculated into 5 ml of LB broth and incubated on a shaker (400 rpm) at 37 °C overnight. The bacterial concentrations were determined by viable count and were adjusted to correlate with approximately 10^9 CFU/ml.
(§2) The broth microdilution method was used to determine minimal inhibitory concentration (MIC) and minimal bactericidal concentration (MBC), in accordance with the EUCAST standards for the broth microdilution method. Two-fold serial dilutions of the lipopeptides were used, and the final concentrations ranged from 0.19 to 100 µM. In brief, two-fold serial dilutions of the lipopeptides were performed in a 96-well plate in PBS, with a final volume of 100 µl per well, after which 100 µl of LB-broth media containing approximately 5 × 10^5 CFU/ml of bacteria was added to each well. The plate was then incubated for 20 h in 37 °C on a shaker (400 rpm). The effect of lipopeptide-antibiotic combinations was investigated by performing checkerboard assays. The assays were performed in accordance with the MIC and MBC tests conducted above, but with horizontal and longitudinal two-fold serial dilutions of the tested compounds. […] The fractional inhibitory concentration (FIC) and fractional bactericidal concentration (FBC) were calculated by the equation (MIC or MBC of peptide in combination/MIC or MBC of peptide alone) + (MIC or MBC of antibiotic in combination/MIC or MBC of antibiotic alone). Synergy was defined as FIC/FBC ≤ 0.5, additive when 0.5 < FIC/FBC ≤ 1, indifferent when 1 < FIC/FBC < 2 and antagonistic when FIC/FBC ≥ 2. All experiments were repeated at least three times.

[3] = tested on: E. coli (K-12 MG1655); conditions: Table 3; K-12 MG1655; broth microdilution, 50:50 PBS/LB-broth, 200 µL, 20 h, 37 °C
Experimental: as §1, §2

[4] = tested on: P. aeruginosa; conditions: 20 h
Experimental: as §1, §2

[5] = tested on: S. aureus (ATCC 29213, MSSA); conditions: ATCC 29213, 20 h
Experimental: as §1, §2

[6] = tested on: K. pneumoniae; conditions: 20 h
Experimental: as §1, §2

[7] = tested on: A. baumannii; conditions: 20 h
Experimental: as §1, §2

[8] = tested on: E. faecium; conditions: 20 h
Experimental: as §1, §2

[9] = tested on: human erythrocytes; assay: Hemolytic activity; format: cell-based; conditions: 15% suspension in PBS, 1 h, 37 °C, absorbance 540 nm, highest tested concentration 100 µM
Experimental: The hemolytic activity of the lipopeptides was investigated by collecting blood from healthy volunteers in heparinized vacutainers. Briefly, the blood was centrifuged at 600 × g for 5 min and the erythrocyte pellet was washed three times in PBS. The cells were then suspended in PBS and added to 96-well plates (15% erythrocyte suspension/well), containing the lipopeptides with two-fold serial dilution. The plates were incubated for 1 h at 37 °C followed by centrifugation for 5 min at 900×g and absorbance measurement of the supernatants at 540 nm. Hemolytic activity (%) was calculated by subtracting the negative control from all values and normalization against the positive control (0.5% Triton X-100), that was set to 100%. All experiments, each in duplicate, were repeated three times.

[10] = Carboxyfluorescein release assay, bacterial liposome model; format: biochemical; conditions: 75:25 POPC:POPG liposomes, 25 µM lipid, 10 mM PBS pH 7.4, 10^–5–10^2 µM peptide, 60 min, fluorescence, Hill fit, n = 3; read-out: EC50 Bacterial (concentration that triggers 50% CF release)
Experimental: (§3) Liposomes were prepared by thin-film hydration method. Lipids stock solutions (10 mg/ml in chloroform, Avanti Polar Lipids, Inc., Alabaster, United States) of the lipids 1-palmitoyl-2-oleoyl-sn-glycero-3-phosphocholine (POPC), 1-palmitoyl-2-oleoyl-sn-glycero-3-phospho-L-serine (POPS), 1-Hexadecanoyl-2-(9Z-Octadecenoyl)-sn-Glycero-3-Phosphoglycerol (POPG) and Cholesterol (Chol) were employed. Bacterial liposomes were prepared with a 75:25 ratio of POPC:POPG and mammalian liposomes were prepared with a 65:5:30 ratio of POPC:POPS:Chol. Lipid solutions were thoroughly homogenised, and the solvent was evaporated with the use of a dry N2 steam to yield a lipid cake. […] The lipid film was subsequently hydrated with a 5(6)-CF solution (50 mM CF, 10 mM PBS, 90 mM NaCl, pH 7.4). Following a 10 min incubation on orbital shaker (50 min^−1), the solution was vortexed for 60 s on medium speed. A mini extruder (Avanti Polar Lipids, Inc., United States) was employed and 21 extrusions were performed through a 0.1 µm filter membrane (Nuclepore track-etched hydrophilic membrane, Cytiva, Whatman, MA, United States), resulting in monodispersed unilamellar liposomes. Directly before use the liposomes were purified from unencapsulated CF by filtration through a gel filtration column (PD Minitrap G-25 column, Cytiva, United States), against PBS buffer (10 mM, pH 7.4).
(§4) Peptide and lipopeptide activity towards liposome models were evaluated using a carboxyfluorescein (CF) release assay. Liposomes were diluted in PBS (10 mM, pH 7.4) to a final lipid concentration of 25 µM and incubated with peptides (10^–5–10^2 µM) in a 96-well plate (n = 3). CF release was monitored using an Infinite M1000 PRO plate reader every 2.5 min for 1 h. Full (100%) CF release was obtained by addition of 1% Triton X-100 solution followed by 10 min incubation. CF release percentage was evaluated according to the formula 100 * (F − F0)/(FT − F0), where F indicates the instantaneous fluorescence, FT the total fluorescence and F0 the background fluorescence prior to peptide addition. Data were fitted to a Hill-1 curve using MATLAB R2019a (The MathWorks Inc., Natick, Massachusetts, United States) and the half maximum effective concentration (EC50) was extracted.

[11] = Carboxyfluorescein release assay, mammalian liposome model; format: biochemical; conditions: 65:5:30 POPC:POPS:Chol. liposomes, 25 µM lipid, 10 mM PBS pH 7.4, 10^–5–10^2 µM peptide, 60 min, fluorescence, Hill fit, n = 3; read-out: EC50 Mammalial (concentration that triggers 50% CF release)
Experimental: as §3, §4

[12] = tested on: S. aureus (ATCC 29213); format: cell-based; conditions: for S. aureus MBC, antibiotic alone / S. aureus MIC, antibiotic alone: Table 6, ATCC 29213, checkerboard assay, 50:50 PBS/LB-broth, 200 µL
Experimental: as §2, with “Two-fold serial dilutions of the lipopeptides were used, and the final concentrations ranged from 0.19 to 100 µM.” left out, “Synergy was defined as FIC/FBC ≤ 0.5, additive when 0.5 < FIC/FBC ≤ 1, indifferent when 1 < FIC/FBC < 2 and antagonistic when FIC/FBC ≥ 2.” left out

Row | Structure (SMILES) | E. coli MIC, antibiotic alone [1] | E. coli MBC, antibiotic alone [1] | E. coli MBC [3] | E. coli MIC [3] | S. aureus MBC [5] | S. aureus MIC [5] | HC, hemolytic concentration at 5% hemolytic activity [9] | EC50 [10] | EC50 [11] | also measured
1 | CNC(C)C1CCC(N)C(OC2C(N)CC(N)C(OC3OCC(C)(O)C(NC)C3O)C2O)O1 (stereo not drawn) [Gentamicin] | 1 µg/mL | 1 µg/mL | – | – | – | – | – | – | – | –
2 | CCCCC(=O)N[C@@H](CC(C)C)C(=O)NCC(=O)N[C@@H](CC(C)C)C(=O)N[C@@H](CCCCN)C(=O)N[C@@H](CC(C)C)C(=O)N[C@@H](CC(C)C)C(=O)N[C@@H](Cc1c[nH]c2ccccc12)C(=O)N[C@@H](CO)C(=O)N[C@@H](C)C(=O)N[C@@H](Cc1ccc(O)cc1)C(=O)N[C@@H](CCCCN)C(=O)N[C@@H](Cc1c[nH]cn1)C(=O)N[C@@H](CCCNC(=N)N)C(=O)N[C@@H](CCCCN)C(=O)N[C@H](C(=O)N[C@@H](CC(C)C)C(N)=O)[C@@H](C)O [L-6-C5-Leu] (Pentanoyl-LGLKLLWSAYKHRKTL-NH2) | – | – | 6.2 µM | 6.2 µM | 3.1 µM | 3.1 µM | > 100 µM | 0.11 µM | 3.99 µM | MBC [2]: > 100 µM; MIC [2]: > 100 µM; MBC [4]: 50 µM; MIC [4]: 25 µM; MBC [6]: 50 µM; MIC [6]: 25 µM; MBC [7]: 3.1 µM; MIC [7]: 3.1 µM; MBC [8]: 6.3 µM; MIC [8]: 3.1 µM
3 | CCCCC(=O)N[C@H](CC(C)C)C(=O)NCC(=O)N[C@@H](C(=O)N[C@H](CCCCN)C(=O)N[C@@H](C(=O)N[C@H](CC(C)C)C(=O)N[C@H](Cc1c[nH]c2ccccc12)C(=O)N[C@H](CO)C(=O)N[C@H](C)C(=O)N[C@H](Cc1ccc(O)cc1)C(=O)N[C@H](CCCCN)C(=O)N[C@H](Cc1c[nH]cn1)C(=O)N[C@H](CCCNC(=N)N)C(=O)N[C@H](CCCCN)C(=O)N[C@@H](C(=O)N[C@@H](C(N)=O)[C@H](C)CC)[C@H](C)O)[C@H](C)CC)[C@H](C)CC [D-6-C5] (Pentanoyl-[dL]G[dI][dK][dI][dL][dW][dS][dA][dY][dK][dH][dR][dK][dT][dI]-NH2) | – | – | 3.1 µM | 3.1 µM | 6.2 µM | 3.1 µM | > 100 µM | 0.12 µM | 13.1 µM | S. aureus MIC, lipopeptide alone ([12]; ATCC 29213, 20 h): 3.1 µM; MBC [2]: 50 µM; MIC [2]: 25 µM; MBC [4]: 50 µM; MIC [4]: 25 µM; MBC [6]: 50 µM; MIC [6]: 25 µM; MBC [7]: 3.1 µM; MIC [7]: 3.1 µM; MBC [8]: 3.1 µM; MIC [8]: 3.1 µM; E. coli MIC, lipopeptide alone ([1]; K-12, 20 h): 3.1 µM
4 | CCCCCC(=O)N[C@H](CC(C)C)C(=O)NCC(=O)N[C@@H](C(=O)N[C@H](CCCCN)C(=O)N[C@@H](C(=O)N[C@H](CC(C)C)C(=O)N[C@H](Cc1c[nH]c2ccccc12)C(=O)N[C@H](CO)C(=O)N[C@H](C)C(=O)N[C@H](Cc1ccc(O)cc1)C(=O)N[C@H](CCCCN)C(=O)N[C@H](Cc1c[nH]cn1)C(=O)N[C@H](CCCNC(=N)N)C(=O)N[C@H](CCCCN)C(=O)N[C@@H](C(=O)N[C@@H](C(N)=O)[C@H](C)CC)[C@H](C)O)[C@H](C)CC)[C@H](C)CC [D-6-C6] (Hexanoyl-[dL]G[dI][dK][dI][dL][dW][dS][dA][dY][dK][dH][dR][dK][dT][dI]-NH2) | – | – | 3.1 µM | 3.1 µM | 3.1 µM | 3.1 µM | > 100 µM | 0.13 µM | 4.99 µM | –
5 | CO[C@H]1/C=C/O[C@@]2(C)Oc3c(C)c(O)c4c(O)c(c(/C=N/N5CCN(C)CC5)c(O)c4c3C2=O)NC(=O)/C(C)=C\C=C\[C@H](C)[C@H](O)[C@@H](C)[C@@H](O)[C@@H](C)[C@H](OC(C)=O)[C@@H]1C [Rifampicin] | – | 100 µg/mL | – | – | – | – | – | – | – | S. aureus MBC, antibiotic alone [12]: 0.062 µg/mL; S. aureus MIC, antibiotic alone [12]: 0.062 µg/mL

Continued, in another order:

Row | E. coli MIC, antibiotic alone [1] | Structure (SMILES) | E. coli MBC, antibiotic alone [1] | E. coli MBC [3] | E. coli MIC [3] | S. aureus MBC [5] | S. aureus MIC [5] | HC, hemolytic concentration at 5% hemolytic activity [9] | EC50 [10] | EC50 [11] | also measured
6 | 0.125 µg/mL | O=C(O)c1cn(C2CC2)c2cc(N3CCNCC3)c(F)cc2c1=O [Ciprofloxacin] | 0.125 µg/mL | – | – | – | – | – | – | – | S. aureus MBC, antibiotic alone [12]: 0.25 µg/mL; S. aureus MIC, antibiotic alone [12]: 0.25 µg/mL
7 | 0.5 µg/mL | CO/N=C(\C(=O)N[C@@H]1C(=O)N2C(C(=O)O)=C(COC(C)=O)CS[C@H]12)c1csc(N)n1 [Cefotaxim] | 0.5 µg/mL | – | – | – | – | – | – | – | –

— PMC10011573, “Development of novel broad-spectrum antimicrobial lipopeptides derived from plantaricin NC8 β” (Scientific Reports, 2023)
